Columns and labels:
[1] = system: BaF3-FL KIT D816V or BaF3-FL KIT V560G/D816V cell line; assay: Cell-based assays of c-Kit mutant kinase activity (cell proliferation, ATPlite); details: at least one of the c-kit cell assays of Example 7
Summary of the method: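 BaF3 cells dependent on transfected full-length human KIT D816V or V560G/D816V (pCI-Neo, CMV promoter) were seeded at 1×10^4 cells/well and exposed to 8-point 1:3 dilutions from 10 μM top (0.2% DMSO) for three days at 37° C. ATPlite luminescence gave cell number; IC50 from concentration-response.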

c-Kit kinase = c-Kit kinase (Homo sapiens (Human), UniProt P10721); assay: c-Kit biochemical assay (AlphaScreen kinase activity)
Summary of the method: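 IC50 values come from 8-point, 1:3 compound titrations measuring inhibition of peptide phosphorylation by c-Kit (commercial or His-tagged E. coli-expressed) over 1 h at room temperature, read by AlphaScreen PY30/streptavidin beads. Low-ATP version: 10 μM ATP, 100 nM biotin-(E4Y)3; high-ATP version: 100 μM ATP, 30 nM biotin-(E4Y)10.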

Sequence of c-Kit kinase (P10721 26-976): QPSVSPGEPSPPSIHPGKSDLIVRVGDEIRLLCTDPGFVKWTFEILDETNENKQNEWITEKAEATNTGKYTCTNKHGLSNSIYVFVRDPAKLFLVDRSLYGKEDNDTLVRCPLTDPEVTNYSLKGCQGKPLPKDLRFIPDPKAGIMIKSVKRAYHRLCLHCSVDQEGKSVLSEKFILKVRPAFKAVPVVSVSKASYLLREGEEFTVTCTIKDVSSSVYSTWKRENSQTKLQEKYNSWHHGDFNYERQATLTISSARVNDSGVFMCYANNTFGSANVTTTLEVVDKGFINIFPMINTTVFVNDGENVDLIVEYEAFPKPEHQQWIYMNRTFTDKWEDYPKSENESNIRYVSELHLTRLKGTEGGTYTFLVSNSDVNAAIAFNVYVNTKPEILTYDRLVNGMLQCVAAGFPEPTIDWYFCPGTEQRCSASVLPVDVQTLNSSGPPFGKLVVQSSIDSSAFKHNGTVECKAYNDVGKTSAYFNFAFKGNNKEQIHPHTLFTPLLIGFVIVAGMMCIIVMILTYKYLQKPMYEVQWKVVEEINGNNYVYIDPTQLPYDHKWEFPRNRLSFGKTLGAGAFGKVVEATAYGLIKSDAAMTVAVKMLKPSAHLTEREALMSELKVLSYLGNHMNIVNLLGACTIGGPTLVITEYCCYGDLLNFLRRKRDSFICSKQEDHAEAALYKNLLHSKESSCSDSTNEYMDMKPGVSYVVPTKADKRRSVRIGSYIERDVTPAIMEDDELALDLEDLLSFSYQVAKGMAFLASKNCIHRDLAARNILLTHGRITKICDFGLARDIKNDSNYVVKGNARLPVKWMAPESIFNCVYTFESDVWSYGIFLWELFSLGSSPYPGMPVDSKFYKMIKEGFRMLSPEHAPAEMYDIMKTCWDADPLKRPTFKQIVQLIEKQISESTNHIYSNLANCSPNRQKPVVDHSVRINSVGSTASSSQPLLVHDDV

Row | Compound | IC50 [1] | IC50 (c-Kit kinase)
1 | Cc1nc(C2CCN(c3ncnc4[nH]c(-c5ccnc(N6CCOCC6)c5)cc34)CC2)[nH]c1-c1ccccc1 [P-3076, 4-[4-[4-[4-(4-methyl-5-phenyl-1H-imidazol-2-yl)-1-piperidyl]-7H-pyrrolo[2,3-d]pyrimidin-6-yl]-2-pyridyl]morpholine] | < 10000 nM | 0.0001 to 1 µM
2 | Cc1nc(C2CCN(c3ncnc4[nH]c(-c5ccnc(N6CCC(C)CC6)c5)cc34)CC2)[nH]c1-c1ccccc1 [P-3077, 4-[4-(4-methyl-5-phenyl-1H-imidazol-2-yl)-1-piperidyl]-6-[2-(4-methyl-1-piperidyl)-4-pyridyl]-7H-pyrrolo[2,3-d]pyrimidine] | < 10000 nM | 0.0001 to 1 µM
3 | Cc1nc(C2CCN(c3ncnc4[nH]c(-c5ccnc(OC(C)C)c5)cc34)CC2)[nH]c1-c1ccccc1 [P-3078, 6-(2-isopropoxy-4-pyridyl)-4-[4-(4-methyl-5-phenyl-1H-imidazol-2-yl)-1-piperidyl]-7H-pyrrolo[2,3-d]pyrimidine] | < 10000 nM | 0.0001 to 1 µM
4 | Cc1nc(C2CCN(c3ncnc4[nH]c(-c5ccnc(N6CCCC6)c5)cc34)CC2)[nH]c1-c1ccccc1 [P-3079, 4-[4-(4-methyl-5-phenyl-1H-imidazol-2-yl)-1-piperidyl]-6-(2-pyrrolidin-1-yl-4-pyridyl)-7H-pyrrolo[2,3-d]pyrimidine] | < 10000 nM | 0.0001 to 1 µM
5 | Cc1nc(C2CCN(c3ncnc4[nH]c(-c5cccc(OC(F)(F)F)c5)cc34)CC2)[nH]c1-c1ccccc1 [P-3080, 4-[4-(4-methyl-5-phenyl-1H-imidazol-2-yl)-1-piperidyl]-6-[3-(trifluoromethoxy)phenyl]-7H-pyrrolo[2,3-d]pyrimidine] | < 10000 nM | 1 to 10 µM
6 | Cc1nc(C2CCN(c3ncnc4[nH]c(-c5cccc(F)c5)cc34)CC2)[nH]c1-c1ccccc1 [P-3081, 6-(3-fluorophenyl)-4-[4-(4-methyl-5-phenyl-1H-imidazol-2-yl)-1-piperidyl]-7H-pyrrolo[2,3-d]pyrimidine] | < 10000 nM | 0.0001 to 1 µM
7 | Cc1nc(C2CCN(c3ncnc4[nH]c(-c5cccc(NS(C)(=O)=O)c5)cc34)CC2)[nH]c1-c1ccccc1 [P-3083, N-[3-[4-[4-(4-methyl-5-phenyl-1H-imidazol-2-yl)-1-piperidyl]-7H-pyrrolo[2,3-d]pyrimidin-6-yl]phenyl]methane sulfonamide] | < 10000 nM | 0.0001 to 1 µM
8 | Cc1nc(C2CCN(c3ncnc4[nH]c(-c5ccc(F)cc5)cc34)CC2)[nH]c1-c1ccc2c(c1)OCCO2 [P-3084, 4-[4-[5-(2,3-dihydro-1,4-benzodioxin-6-yl)-4-methyl-1H-imidazol-2-yl]-1-piperidyl]-6-(4-fluorophenyl)-7H-pyrrolo[2,3-d]pyrimidine] | < 10000 nM | 0.0001 to 1 µM
9 | Cc1nc(C2CCN(c3ncnc4[nH]c(-c5ccc(F)cc5)cc34)CC2)[nH]c1-c1ccc(OC(F)(F)F)cc1 [P-3085, 6-(4-fluorophenyl)-4-[4-[4-methyl-5-[4-(trifluoromethoxy)phenyl]-1H-imidazol-2-yl]-1-piperidyl]-7H-pyrrolo[2,3-d]pyrimidine] | < 10000 nM | 0.0001 to 1 µM
10 | Cc1nc(C2CCN(c3ncnc4[nH]c(-c5ccc(C#N)cc5)cc34)CC2)[nH]c1-c1ccc(OC(F)(F)F)cc1 [P-3086, 4-[4-[4-[4-methyl-5-[4-(trifluoromethoxy)phenyl]-1H-imidazol-2-yl]-1-piperidyl]-7H-pyrrolo[2,3-d]pyrimidin-6-yl]benzonitrile] | < 10000 nM | 1 to 10 µM
11 | COc1cc(-c2cc3c(N4CCC(c5nc(C)c(-c6ccc(OC(F)(F)F)cc6)[nH]5)CC4)ncnc3[nH]2)ccn1 [P-3087, 6-(2-methoxy-4-pyridyl)-4-[4-[4-methyl-5-[4-(trifluoromethoxy)phenyl]-1H-imidazol-2-yl]-1-piperidyl]-7H-pyrrolo[2,3-d]pyrimidine] | < 10000 nM | 1 to 10 µM

— US9771369B2, “Compounds and methods for kinase modulation, and indications therefor” (Plexxikon Inc., priority 2014, dated 2017)
